A word on the IC50: it is the concentration that gives 50% inhibition.

Where two headings read alike, the source gives them in different places.

For series [1], the target named is PDE10 (Homo sapiens, UniProt Q9Y233). In words: PDE10 assay with fluorescent substrate (IMAP, fluorescence polarization). It is filed as biochemical. On the technique in general: Polarisation of emitted light reports the rotation of a fluorescent probe.
Text: (§1) c) Phosphodiesterase (PDE) 2A and 10 Assay with Fluorescent Substrate
(§2) The PDE reaction cleaves cAMP to AMP. The IMAP system (Molecular Device) using fluorescence polarization (FP) as detection principle was used to measure enzyme activity. A fluorescent labeled cAMP was used as substrate for the reaction, generating a labeled AMP. The fluorescent AMP binds specifically to the large M(III)-based nano-particles which reduces the rotational speed of the substrate and thus increases its polarization.
(§3) The inhibition of PDE 2A or 10 enzyme activity was assessed using IMAP-Phosphodiesterase-cAMP fluorescence labeled substrate (Molecular Devices, Order No. R7506), IMAP TR-FRET screening express (Molecular Devices, Order No. R8160, the TR-FRET component will not be used) and PDE 2A or PDE10 protein expressed upon baculovirus infection in SF9 cells. The cells were incubated after infection for ˜3 days and protein production was confirmed by Western Blot. The cells were collected by centrifugation and the pellet frozen in liquid nitrogen before it was resuspended in PBS containing 1% Triton X-100 and protease inhibitors.
(§4) All reactions were performed in 384 well plates, Perkin Elmer black optiplates and IMAP reaction buffer with 0.1% Tween20 (kit component)
(§5) Compounds were serial diluted in DMSO. With an intermediate dilution step with reaction buffer DMSO concentration was reduced to achieve 1% DMSO in the assay reaction. Setup of the assay started with 10 μl enzyme (˜10 ng/well, depending on prep. batch), 5 μl compound, reaction was started by addition of 5 μl labeled cAMP (30 nM, final concentration), immediately mixed for 15 seconds on a Eppendorf mixmate (2000 rpm) followed by an incubation at room temperature for 90 minutes in the dark. Reaction is stopped by adding of 60 μl binding buffer for FP/cAMP (kit component).
(§6) Each assay plate contained wells with vehicle controls (1% DMSO) for the measurement of non-inhibited reaction (=100% control) and wells without enzyme as 0% controls.
The target in series [2] is PDE 10A (Homo sapiens, UniProt Q9Y233). In words: Radioactive PDE10 assay ([3H]cAMP SPA). It is filed as biochemical.
Chain of PDE 10A (Q9Y233 whole entry, species assumed): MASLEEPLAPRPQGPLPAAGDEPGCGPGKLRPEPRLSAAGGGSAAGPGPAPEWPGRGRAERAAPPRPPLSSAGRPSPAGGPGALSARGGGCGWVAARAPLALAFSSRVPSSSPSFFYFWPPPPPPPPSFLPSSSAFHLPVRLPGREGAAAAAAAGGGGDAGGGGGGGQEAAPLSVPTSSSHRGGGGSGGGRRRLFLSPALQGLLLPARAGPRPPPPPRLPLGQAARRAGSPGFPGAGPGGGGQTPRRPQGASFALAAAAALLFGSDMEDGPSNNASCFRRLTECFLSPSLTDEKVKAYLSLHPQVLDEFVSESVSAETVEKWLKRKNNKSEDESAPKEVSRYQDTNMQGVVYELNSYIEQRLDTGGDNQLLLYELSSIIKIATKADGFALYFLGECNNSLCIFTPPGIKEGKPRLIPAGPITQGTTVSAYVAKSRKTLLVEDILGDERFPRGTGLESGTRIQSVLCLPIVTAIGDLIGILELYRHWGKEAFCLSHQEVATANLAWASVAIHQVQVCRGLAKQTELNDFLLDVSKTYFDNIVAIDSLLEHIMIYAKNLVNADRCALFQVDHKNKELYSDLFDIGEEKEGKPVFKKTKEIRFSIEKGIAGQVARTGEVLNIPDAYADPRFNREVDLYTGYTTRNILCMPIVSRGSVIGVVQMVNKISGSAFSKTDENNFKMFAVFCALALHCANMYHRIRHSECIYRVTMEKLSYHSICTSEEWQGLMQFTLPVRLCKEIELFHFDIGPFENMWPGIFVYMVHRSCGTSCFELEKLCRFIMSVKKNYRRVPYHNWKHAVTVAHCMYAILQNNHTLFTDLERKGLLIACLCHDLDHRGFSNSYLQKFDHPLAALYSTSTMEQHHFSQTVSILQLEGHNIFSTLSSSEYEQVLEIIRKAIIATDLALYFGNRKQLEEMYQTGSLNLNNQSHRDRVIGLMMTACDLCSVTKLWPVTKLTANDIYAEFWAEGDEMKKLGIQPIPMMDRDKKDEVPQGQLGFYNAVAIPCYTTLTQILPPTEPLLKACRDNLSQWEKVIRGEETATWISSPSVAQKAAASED
Experimental: (§7) The activity of the positive control (minus the negative control=background) is set to 100% and activity in the presence of compound is expressed relative to these 100%.
(§8) IC50 are calculated with GraphPadPrism or other suited software setting the positive control as 100 and the negative control as 0. For calculation of IC50 usually 11 dilutions of the test compound are selected.
protein concentration: 75 pg/μl
In detail the protocol is as follows:
(§9) Into a 384 well plate (OptiPlate, white), the following components are pipetted (either manually or using automated pipetting devices):
(§10) 20 μl test-compound solution (test compound diluted in assay buffer at twofold the desired concentration)
+10 μl PDE 10A preparation (enzyme diluted in assay buffer to a concentration of 0.3 ng/μl protein)
+10 μl cAMP tracer (diluted in assay buffer to a concentration of 80 nM cAMP, specific activity ˜4 mCi/l)
After addition of all 3 components the plates are shortly spun and incubated at room temperature for 60 min. The reaction is stopped by the addition of 20 μl Yttrium SPA PDE Beads containing 18 mM zinc sulphate in water
PDE 10A protein is expressed upon baculovirus infection in SF9 cells. The cells have been incubated upon infection for ˜3 days and protein production was confirmed by Western Blot. The cells were collected by centrifugation and the pellet frozen in liquid nitrogen before it was resuspended in PBS containing 1% Triton X-100 and protease inhibitors.
For series [3], the target named is T1, PDE2A (Homo sapiens, UniProt O00408). Briefly: PDE 2A assay with fluorescent substrate (IMAP, fluorescence polarization). It is filed as biochemical. The following applies: read-out: PDE2 IC50.
T1 sequence (O00408 whole entry, species assumed): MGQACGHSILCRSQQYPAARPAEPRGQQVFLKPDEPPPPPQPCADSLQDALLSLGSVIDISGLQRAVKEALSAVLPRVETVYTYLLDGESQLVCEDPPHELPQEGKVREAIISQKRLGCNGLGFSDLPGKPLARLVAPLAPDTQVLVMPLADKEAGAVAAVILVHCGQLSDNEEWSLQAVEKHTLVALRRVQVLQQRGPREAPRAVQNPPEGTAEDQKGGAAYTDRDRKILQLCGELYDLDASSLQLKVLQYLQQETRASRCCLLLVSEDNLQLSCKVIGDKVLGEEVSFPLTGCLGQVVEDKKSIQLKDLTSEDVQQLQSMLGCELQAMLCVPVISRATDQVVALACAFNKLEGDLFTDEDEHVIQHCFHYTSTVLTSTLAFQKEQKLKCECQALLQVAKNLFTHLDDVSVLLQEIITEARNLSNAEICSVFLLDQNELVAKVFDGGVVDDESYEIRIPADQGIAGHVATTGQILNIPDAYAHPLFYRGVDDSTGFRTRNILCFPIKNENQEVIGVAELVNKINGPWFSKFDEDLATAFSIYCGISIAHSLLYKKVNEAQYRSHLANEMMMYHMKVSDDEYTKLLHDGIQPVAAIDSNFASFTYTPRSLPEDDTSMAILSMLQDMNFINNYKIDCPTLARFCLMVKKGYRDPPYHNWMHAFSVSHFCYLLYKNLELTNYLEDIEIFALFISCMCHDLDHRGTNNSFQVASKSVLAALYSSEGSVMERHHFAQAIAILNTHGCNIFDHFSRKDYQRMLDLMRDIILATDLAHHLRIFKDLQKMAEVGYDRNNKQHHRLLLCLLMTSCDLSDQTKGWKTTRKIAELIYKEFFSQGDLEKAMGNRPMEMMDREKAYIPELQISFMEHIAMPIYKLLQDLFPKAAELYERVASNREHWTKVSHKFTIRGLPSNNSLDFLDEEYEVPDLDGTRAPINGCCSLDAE
Text: as §1, §2, §3, §4, §5, §6
Series [4] concerns the target T1, PDE2A. In words: Radioactive PDE2 assay ([3H]cAMP SPA). It is filed as biochemical.
Experimental: a) Radioactive PDE2 Assay Protocol:
PDE 2A protein is expressed upon baculovirus infection in SF9 cells. The cells have been incubated upon infection for ˜3 days and protein production was confirmed by Western Blot. The cells were collected by centrifugation and the pellet frozen in liquid nitrogen before it was resuspended in PBS containing 1% Triton X-100 and protease inhibitors.
as §9, §10
+10 μl PDE 2A preparation (enzyme diluted in assay buffer to a concentration of 0.5 ng/μl protein)
+10 μl [^3H]cAMP (diluted in assay buffer to a concentration of 80 nM cAMP)
positive control: no inhibitor, DMSO at the concentration as used in the compound dilutions
negative control: no PDE 2 (SF9 lysate instead of SF9/PDE 2A lysate)
Calculation of % Inhibition:
as §7, §8
For series [5], the target named is hERG channel (Homo sapiens, UniProt Q12809). Briefly: hERG channel assay (whole-cell patch clamp, HEK293 cells transfected with hERG cDNA). The following applies: 35° C. It is filed as cell-based. An excerpt:
hERG (Human Ether-à-Go-Go-Related Gene)-Channel Assay
hERG channel inhibition of compounds of the present invention has been investigated as follows:
HEK (human embryonic kidney) 293 cells were stably transfected with hERG cDNA. Cells were superfused with a bath solution containing (mM): NaCl (137), KCl (4.0), MgCl2 (1.0), CaCl2 (1.8), Glucose (10), HEPES (10), pH 7.4 with NaOH. Patch pipettes were made from borosilicate glass tubing using a horizontal puller and filled with pipette solution containing (mM): K-aspartate (130), MgCl2 (5.0), EGTA (5.0), K2ATP (4.0), HEPES (10.0), pH 7.2 with KOH. Resistance of the microelectrodes was in the range between 2 and 5 MΩ.
Stimulation and Recording:
Membrane currents were recorded using an EPC-10 patch clamp amplifier and PatchMaster software. hERG-mediated membrane currents were recorded at 35° C., using the whole-cell configuration of the patch-clamp technique. Transfected HEK293 cells were clamped at a holding potential of −60 mV and hERG-mediated inactivating tail currents were elicited using a pulse pattern with fixed amplitudes (activation/inactivation: 40 mV for 2000 ms; recovery: […]; ramp to 40 mV in 2 ms; inactivating tail current: 40 mV for 50 ms) repeated at 15 s intervals. During each inter-pulse interval 4 pulses scaled down by a factor of 0.2 were recorded for a P/n leak subtraction procedure. […] compensation was employed up to a level that safely allowed recording devoid of ringing.
Compound Preparation and Application:
The different concentrations of the test compound were applied sequentially on each of the different cells investigated. A steady state level of baseline current was measured for at least 6 sweeps prior to the application of the first test compound concentration.
The test compound was dissolved in DMSO to yield a master stock solution which was diluted further in DMSO to stock solutions needed for the lower concentrations. Final dilutions in extracellular buffer were prepared freshly from these stocks by a 1:1000 dilution step each before starting the experiments.
Data analysis and IC50 determination:
Peak current amplitudes were measured 3 ms after the ramp to +40 mV. For baseline and each concentration the peak currents of the three last sweeps before application of the next concentration were averaged. Residual currents ( 1/10) were calculated for each cell as the fraction of actual average peak current and average baseline peak current.
The logistic concentration-response curve of the following form was fitted to the residual current data using a genetic algorithm:
C: actual concentration of compound (in μM) IC50: half-inhibitory concentration (in μM) p: Hill slope
(The hERG channel carries a current that helps repolarise heart muscle cells.)

Series [6] is described as follows: Metabolic stability in pooled liver microsomes. It is filed as in vitro ADME. The following applies: human liver microsomes, 37° C., 1 mg/mL microsomal protein, test compound 1 μM, NADPH. As for the experimental part:
The metabolic stability of the compounds according to the invention has been investigated as follows:
The metabolic degradation of the test compound was assayed at 37° C. with pooled liver microsomes from various species. The final incubation volume of 100 μl per time point contains TRIS buffer pH 7.6 at room temperature (0.1 M), magnesium chloride (5 mM), microsomal protein (1 mg/mL for human and dog, 0.5 mg/mL for other species) and the test compound at a final concentration of 1 μM. Following a short preincubation period at 37° C., the reactions were initiated by addition of betanicotinamide adenine dinucleotide phosphate, reduced form (NADPH, 1 mM), and terminated by transferring an aliquot into solvent after different time points. […] The half-life was determined by the slope of the semi-logarithmic plot of the concentration-time profile.
(In general: Microsomes from liver hold many membrane-bound enzymes, among them those of drug oxidation.)

A short description of series [7]: Animal experiments and sample analysis: plasma, brain and CSF concentration. It is filed as in vivo. The following applies: rat, 0.5 h between administration and CSF sampling, doses of 10.0 or 5 μmol/kg.
Experimental: Test compounds were administered to animals (rat) different routes at doses of 10.0 or 5 μmol/kg, (both oral and intravenous). After compound administration, the animals were sacrificed in a CO2 chamber and CSF samples were carefully collected by puncture of the cisterna magna. Immediately after CSF sampling, blood was taken by heart puncture and brains were dissected out. Blood was collected in EDTA-coated microvettes and plasma was prepared by centrifugation. Concentration of the test compounds in plasma, CSF or brain homogenate was determined using HPLC-MS-MS.

Chain of hERG channel (Q12809 whole entry): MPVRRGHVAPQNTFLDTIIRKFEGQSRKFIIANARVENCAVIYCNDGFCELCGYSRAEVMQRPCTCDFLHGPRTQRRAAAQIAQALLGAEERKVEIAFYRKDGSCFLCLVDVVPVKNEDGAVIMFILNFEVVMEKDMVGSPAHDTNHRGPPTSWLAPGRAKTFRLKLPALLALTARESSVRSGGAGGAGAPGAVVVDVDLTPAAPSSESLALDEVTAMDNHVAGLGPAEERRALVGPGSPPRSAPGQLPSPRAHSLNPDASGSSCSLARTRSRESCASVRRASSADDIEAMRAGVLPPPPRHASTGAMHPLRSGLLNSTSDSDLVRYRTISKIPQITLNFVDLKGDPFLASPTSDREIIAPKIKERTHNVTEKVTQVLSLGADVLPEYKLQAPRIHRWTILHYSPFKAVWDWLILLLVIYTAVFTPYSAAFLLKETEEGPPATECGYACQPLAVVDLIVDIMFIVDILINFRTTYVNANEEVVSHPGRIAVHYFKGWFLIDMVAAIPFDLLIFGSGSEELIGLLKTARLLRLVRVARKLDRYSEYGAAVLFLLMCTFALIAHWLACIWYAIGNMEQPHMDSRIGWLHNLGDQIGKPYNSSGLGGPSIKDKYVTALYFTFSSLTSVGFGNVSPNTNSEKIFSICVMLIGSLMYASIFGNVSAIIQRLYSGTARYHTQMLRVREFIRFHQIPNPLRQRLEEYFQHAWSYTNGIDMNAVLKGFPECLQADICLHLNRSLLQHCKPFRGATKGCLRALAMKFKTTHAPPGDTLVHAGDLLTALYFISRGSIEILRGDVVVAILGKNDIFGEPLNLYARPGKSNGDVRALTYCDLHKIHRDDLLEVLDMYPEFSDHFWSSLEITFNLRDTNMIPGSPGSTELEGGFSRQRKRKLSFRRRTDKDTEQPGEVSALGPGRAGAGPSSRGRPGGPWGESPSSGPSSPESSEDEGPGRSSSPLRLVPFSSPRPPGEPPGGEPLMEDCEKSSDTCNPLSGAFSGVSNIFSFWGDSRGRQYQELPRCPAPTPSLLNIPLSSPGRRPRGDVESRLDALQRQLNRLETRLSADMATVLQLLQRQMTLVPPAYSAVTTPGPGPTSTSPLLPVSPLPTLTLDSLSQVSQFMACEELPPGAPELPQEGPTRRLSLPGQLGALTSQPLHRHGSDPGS
Chain of PDE10 (Q9Y233 whole entry, species assumed): as the sequence (Q9Y233 whole entry, species assumed) above

Take `Cc1nc2cccnc2n2c(-c3cc(O)ccc3F)nnc12` [Example 4]: the IC50 was 256 nM in series [1], 441 nM in series [2], 120 nM in series [3] and 138 nM in series [4].

As for `Cc1nc2cccnc2n2c(-c3cc(OCCC(C)O)ccc3Cl)nnc12` (stereo not shown) [Example 19], the IC50 in series [2] came out at 3010 nM; in series [4], 146 nM.

Regarding `Cc1nc2cccnc2n2c(-c3cc(OC4CCC(F)(F)CC4)ccc3Cl)nnc12` [Example 21], the IC50 in series [5] is > 10000 nM; in series [1] it was 7050 nM; in series [2], 2820 nM; in series [3] it was 22 nM; in series [4], 70 nM. Also, in series [6], the “Half-life - t½” value was found to be 2.17 h.

Turning to `Cc1ccc2nc(C)c3nnc(-c4cc(OC5CCC(F)(F)CC5)ccc4Cl)n3c2n1` [Example 30], the “Half-life - t½” value in series [6] came to 2.17 h. Further, the IC50 in series [1] turned out to be 2570 nM; in series [2] it was 3920 nM; in series [3], 20 nM; in series [4], 27 nM.

On to `Cc1nc2cccnc2n2c(-c3cc(O)ccc3Cl)nnc12` [Example 1], for which the “Half-life - t½” value in series [6] came to 2.17 h. Also, the results for the 50% inhibitory concentration (IC50) in series [1] and in series [2] were 355 nM and 421 nM, respectively.

On to `COCCOc1ccc(Cl)c(-c2nnc3c(C)nc4ccc(C)nc4n23)c1` [Example 29], for which the IC50 worked out at 5100 nM in series [1], 2380 nM in series [2], 37 nM in series [3] and 17 nM in series [4].

In the case of `Cc1ccc2nc(C)c3nnc(-c4cc(O)ccc4Cl)n3c2n1` [Example 2], the IC50 in series [1] amounted to 33 nM; in series [2], 40 nM; in series [3], 3 nM; in series [4], 4 nM.

Consider `Cc1nc2cccnc2n2c(-c3cc(OCCCO)ccc3Cl)nnc12` [Example 13], for which the IC50 in series [5] is > 10000 nM; in series [1], 6360 nM; in series [2], 2190 nM; in series [3] it was 95 nM; in series [4], 53 nM. For the same molecule, the “Half-life - t½” value in series [6] turned out to be 2.17 h.

For `Cc1nc2cccnc2n2c(-c3cc(OCC4CCOC4)ccc3Cl)nnc12` (stereo not shown) [Example 25], the IC50 came out at 7330 nM in series [1], 3260 nM in series [2], 38 nM in series [3] and 55 nM in series [4].

Regarding `Cc1nc2cccnc2n2c(-c3cc(OC4CCOCC4)ccc3Cl)nnc12` [Example 20], the IC50 is > 10000 nM in series [5] and 2760 nM in series [2]. Moreover, the “Half-life - t½” value in series [6] came out at 2.17 h. In addition, the concentration at 0.5 h in series [7] (brain, read-out: conc brain) was found to be 272 nM; in series [7] (plasma, read-out: conc plasma), 338 nM; in series [7] (read-out: conc CSF), 37 nM.

Turning to `Cc1ccc2nc(C)c3nnc(-c4cc(OC[C@H](C)O)ccc4Cl)n3c2n1` [Example 34], the IC50 in series [5] was > 10000 nM; in series [3] it was 17 nM; in series [4], 9 nM. In addition, the “Half-life - t½” value in series [6] worked out at 2.17 h. Further, the concentration at 0.5 h in series [7] (brain, read-out: conc brain) came out at 146 nM; in series [7] (plasma, read-out: conc plasma), 223 nM; in series [7] (read-out: conc CSF) it was 19 nM.

With `Cc1nc2cccnc2n2c(-c3cc(OC4CCC(O)CC4)ccc3Cl)nnc12` (stereo not shown) [Example 39], the IC50 was 2100 nM in series [2] and 914 nM in series [4].

In the case of `COCCCOc1ccc(Cl)c(-c2nnc3c(C)nc4ccc(C)nc4n23)c1` [Example 31], the IC50 in series [1] worked out at 2900 nM; in series [2], 1900 nM; in series [3] it was 8 nM; in series [4], 7 nM.

`Cc1ccc2nc(C)c3nnc(-c4cc(OCCCO)ccc4Cl)n3c2n1` [Example 27]: the values for the IC50 in series [5], in series [1] and in series [2] were > 10000 nM, 958 nM and 970 nM, respectively.

For the molecule `Cc1nc2cccnc2n2c(-c3cc(OC(C)C4CCOCC4)ccc3Cl)nnc12` (stereo not shown) [Example 38], the IC50 in series [2] was found to be 1960 nM; in series [4] it was 417 nM.

Take `Cc1ccc2nc(C)c3nnc(-c4cc(OC[C@@H](C)O)ccc4Cl)n3c2n1` [Example 35]: in series [6], the “Half-life - t½” value was found to be 2.17 h. Moreover, the IC50 turned out to be 17 nM in series [3] and 9 nM in series [4].

Regarding `Cc1ccc2nc(C)c3nnc(-c4cccc(O)c4)n3c2n1` [Example 3], the results for the IC50 in series [2] and in series [4] were 411 nM and 155 nM, respectively.

Take `Cc1ccc2nc(C)c3nnc(-c4cccc(OCCCO)c4)n3c2n1` [Example 36]: the results for the IC50 in series [2] and in series [4] were 850 nM and 219 nM, respectively.

Consider `Cc1nc2cccnc2n2c(-c3cc(OCCCO)ccc3F)nnc12` [Example 26], for which the results for the IC50 in series [2] and in series [4] were 1380 nM and 116 nM, respectively.

For the molecule `Cc1nc2cccnc2n2c(-c3cc(OCC4(C)COC4)ccc3Cl)nnc12` [Example 37], the IC50 in series [2] came out at 3080 nM; in series [4], 171 nM.

These data come from patent publication US20140045856A1, “4-Methyl-2,3,5,9,9b-pentaaza-cyclopenta[a]naphthalenes” (BOEHRINGER INGELHEIM INTERNATIONAL GMBH, priority 2012, published 2014).
